Measured values from publication PMC6890717, “Conversion of Cytochrome P450 2D6 of Human Into a FRET-Based Tool for Real-Time Monitoring of Ajmalicine in Living Cells” (Frontiers in Bioengineering and Biotechnology, 2019).

What was measured:
[1] = tested on: FLIP-Ajn (ECFP_CYP2D6_Venus, human Cytochrome P450 2D6); assay: Specificity analysis of FLIP-Ajn with CYP2D6 inhibitors/substrates (FRET ratio); conditions: 10 mM compound added to FLIP-Ajn; change <0.2 regarded as insignificant
Experimental: Characterization of nanosensor was performed using microplate reader (Synergy H1, Biotek, USA). […] After spectral analysis, pH dependence, specificity, and affinity of the nanosensor were studied. […] Specificity testing of the developed nanosensor was carried out by the addition of 10 mM of various CYP2D6 inhibitors/substrates to FLIP-Ajn.

E. coli BL21(DE3) cells = assay: Real-time monitoring of ajmalicine in bacterial cells expressing FLIP-Ajn; assay type: cell-based, Escherichia coli; conditions: 10 mM ajmalicine added externally; increased from 0.2; 30 min recording
Experimental: The developed recombinant construct pRSET-B_ECFP_CYP2D6_Venus (FLIP-Ajn) was introduced in E. coli BL21(DE3) cells and grown at 37°C (150 rpm) in an incubator shaker until O.D.600 of the bacterial growth reached 0.6. The cells were then treated with 0.5 mM IPTG and kept for 24 h at 21°C with continuous shaking for the expression of the nanosensor protein. The real-time monitoring of ajmalicine in the bacterial cells was carried out by the addition of 10 mM ajmalicine to the bacterial culture placed in the multi-well plates. Ratio of emission intensities of Venus/ECFP were recorded for 30 min and data were collected at every 5 min intervals. The control experiment includes the bacterial cells without ajmalicine. The excitation filters/slits used were same as described in the previous analysis.

[2] = tested on: Saccharomyces cerevisiae/URA3 strain BY4247; assay: Real-time monitoring of ajmalicine in yeast cells expressing FLIP-Ajn (confocal); assay type: cell-based; conditions: 10 mM ajmalicine
Experimental: Gateway-cloned pYES-DEST_ECFP_CYP2D6_Venus was transformed in Saccharomyces cerevisiae/URA3 strain BY4247. The transformed yeast cells were cultured in synthetic defined (SD) medium containing dextrose (2%) as a source of carbon and galactose (1%) for induction. The expressed yeast cells were subjected to confocal microscopic analysis with Leica TCS-SPE scan head and 63x objective lens with oil immersion system. The expressed culture was provided with 10 mM ajmalicine. Ratio of emission intensities of Venus/ECFP were recorded for 10 min and data were collected at every 20 s intervals.

HEK-293T cells = assay: Real-time monitoring of ajmalicine in transfected animal cells (confocal); assay type: cell-based, human; conditions: 10 mM ajmalicine; 0.4 ± 0.05 at 0 s
Experimental: The HEK-293T (human embryonic kidney) cells were cultured in Dulbecco's modified Eagle's medium containing 50 μg/ml ampicillin, 10% fetal calf serum, and CO2 in an incubator shaker at 37°C. Calcium phosphate-mediated transient transfection of HEK-293T cells with pCDNA_ECFP_CYP2D6_Venus was carried out in a 6-well culture plate and was allowed to express for 2 days. Washing buffer comprised of 50 mM NaCl, 1 mM MgCl2, 5 mM KCl, 5 mM D-glucose, and 25 mM HEPES (pH 7.2–7.4). After a gap of 2 days after transfection, the cultured cells were set for imaging analysis using a confocal microscope with 1.53 numerical aperture, cooled charge-coupled camera, and 63x oil immersion objective lens. The culture was supplemented with 10 mM ajmalicine and the images were taken. Ratio of emission intensities of Venus/ECFP were recorded for 10 min. The laser setting used for the analysis was same for both yeast and animal cells. Data were collected after an interval of 20 s and the exposure time set for acquiring images was 300 ms.

[3] = tested on: Catharanthus roseus cells; assay: FRET ratio in transformed plant suspension culture (confocal); assay type: cell-based; conditions: slow and consistent addition of ajmalicine to suspension culture; increased from 0.7
Experimental: Leaf explants were used in the study for initiating callus. The segments of Catharanthus roseus leaves were collected from the herbal garden of Jamia Hamdard, New Delhi. The collected explants were then washed continuously for 20 min under tap water. The explants were then treated with 0.5% cetrimide and 0.1% HgCl2 for 10 and 5 min, respectively. Further sequential washing with 70% alcohol and sterilized distilled water for 1 min were performed. The culturing of sterile explants was done on MS (Murashige and Skoog, [1962]) medium containing 0.5 μM 2,4-D, 3% sucrose, and 0.62% agar. The pH of the medium was maintained to 5.65, and the cultured tubes were kept in a culture room at 25 ± 2°C.
Agrobacterium tumefaceins strain EHA105 were transformed with pEarleyGate100_ECFP_CYP2D6_Venus, and the suspension culture was initiated after inoculating a single colony of transformed Agrobacterium strain in LB medium. The medium was supplemented with […], and […], and the culture was maintained at 28°C for 36 h. […]
Suspension culture of Catharanthus roseus transformed with pEarleyGate100_ECFP_CYP2D6_Venus was observed under a Leica confocal microscope with a 10x objective. The culture was subjected to fluorescence analysis, and the ratio of Venus/ECFP emission intensities was recorded after excitation at 430 nm. […]

Compound	FRET ratio change relative to control [1]	FRET ratio after addition of ajmalicine (E. coli BL21(DE3) cells)	increased FRET ratio ([2]; Figure 8)	FRET ratio after addition of ajmalicine ([2]; increased from 0.65 within 10 min)	FRET ratio at 400 s (HEK-293T cells)	FRET ratio after addition of ajmalicine [3]
COC(=O)C1=CO[C@@H](C)[C@H]2Cn3ccc4c5ccccc5nc-4c3C[C@H]12 [serpentine]	~ 0.14	–	–	–	–	–
COC(=O)C1=CO[C@@H](C)[C@H]2CN3CCc4c([nH]c5ccccc45)[C@@H]3C[C@H]12 [ajmalicine]	–	0.4	~ 1	1.61	0.85 ± 0.05	3.9
